According to ChEMBL document CHEMBL5055665, “Discovery of the Triazolo[1,5-a]Pyrimidine-Based Derivative WS-898 as a Highly Efficacious and Orally Bioavailable ABCB1 Inhibitor Capable of Overcoming Multidrug Resistance” (J Med Chem, 2021):

Assays:
HEK293 [1] = assay: Reversal of resistance to paclitaxel-induced cytotoxicity in human HEK293/pcDNA3.1 cells assessed as reduction in paclitaxel IC50 at 4 uM preincubated for 4 hrs followed by paclitaxel addition and measured after 72 hrs by MTT assay (reference value: 1.93 +/- 0.06 nM); type: functional, cell-based
HEK293 [2] = assay: Reversal of resistance to paclitaxel-induced cytotoxicity in human HEK293/ABCB1 cells assessed as reduction in paclitaxel IC50 at 4 uM preincubated for 4 hrs followed by paclitaxel addition and measured after 72 hrs by MTT assay (reference value: 91.40 +/- 23.32 nM); type: functional, cell-based
SW-620 [3] = assay: cells; conditions: Homo sapiens
KB-C2 = assay: Reversal of resistance to paclitaxel-induced cytotoxicity in human KB-C2 cells assessed as reduction in paclitaxel IC50 at 4 uM preincubated for 4 hrs followed by paclitaxel addition and measured after 72 hrs by MTT assay (reference value: 1886.37 +/- 243.05 nM); type: functional, cell-based
KB 3-1 = assay: Reversal of resistance to paclitaxel-induced cytotoxicity in human KB 3-1 cells assessed as reduction in paclitaxel IC50 at 4 uM preincubated for 4 hrs followed by paclitaxel addition and measured after 72 hrs by MTT assay (reference value: 4.54 +/- 1.59 nM); type: functional, cell-based
SW-620 [4] = assay: cells; conditions: Homo sapiens; remark: listed apart in the source
SW-620 [5] = assay: Antitumor activity against human SW-620/AD300 cells xenografted in BALB/c nude mouse assessed as tumor growth inhibition at 5 mg/kg, iv administered once ever 3 days for 21 days; type: functional; parameters: scale not given: the % may be the effect or the level left
Mus musculus [6] = assay: Toxicity in BALB/c mouse xenografted with human SW-620/AD300 cells assessed as change in body weight at 5 mg/kg, iv administered once every 3 days; type: organism-based; conditions: in vivo, 72 h, time 3 day
Mus musculus [7] = assay: Toxicity in BALB/c mouse xenografted with human SW-620/AD300 cells assessed as mortality at 5 mg/kg, iv administered once every 3 days; type: organism-based; conditions: in vivo, 72 h, time 3 day

## COc1ccc(CCN(C)CCCC(C#N)(c2ccc(OC)c(OC)c2)C(C)C)cc1OC (centres undefined)
HEK293 [1]
  IC50: 1.62 nM
HEK293 [2]
  IC50: 10.4 µM
SW-620 [3]
  IC50: 300 nM
KB-C2
  IC50: 7.05 nM
KB 3-1
  IC50: 3.84 nM
SW-620 [4]
  IC50: 7.11 nM

## CC(=O)O[C@H]1C(=O)[C@@]2(C)[C@H]([C@H](OC(=O)c3ccccc3)[C@]3(O)C[C@H](OC(=O)[C@H](O)[C@@H](NC(=O)c4ccccc4)c4ccccc4)C(C)=C1C3(C)C)[C@]1(OC(C)=O)CO[C@@H]1C[C@@H]2O [PACLITAXEL]
SW-620 [5]
  Activity: 32%
Mus musculus [6]
  Activity: Non-Toxic
Mus musculus [7]
  Activity: Non-Toxic
